Source: patent publication US20180071317A1, “USE OF AGENTS THAT ALTER THE PERITUMORAL ENVIRONMENT FOR THE TREATMENT OF CANCER” (SERVICIO ANDALUZ DE SALUD, priority 2011, published 2018)

Assays:
[1] = test system: fibroblast cells in co-culture with cells isolated from primary human tumors; experiment: Marker expression (IHC) in fibroblasts co-cultured with primary human tumor cells (colon, pancreatic, lung carcinoma, glioma, multiple myeloma); format: cell-based
Procedure: To check that the interaction of the human primary tumor cells with stromal cells, [human fibroblasts,] stimulates the secretion of substances of importance for survival and tumor progression, co-cultures were performed using stromal cells with human fibroblast-tumor cells obtained directly from primary human tumors.
On this occasion, in order to identify, using immunohistochemical techniques, the secretion of substances of importance for the survival and progression of tumors, the following antibodies were used: TGF-α (SAB4502953), TGF-β1 (SAB4502954), TGF-β2 (SAB4502956), TGF-β3 (SAB4502957), SPARC (HPA002989), MMP-3 (HPA007875), MMP-7 (SAB4501894), MMP-9 (SAB4501896), MMP-11 (SAB4501898) MMP-13 (SAB4501900) and MMP-14 (SAB4501901) using specific antibodies against them. All antibodies used were rabbit polyclonal antibodies obtained from Sigma-Aldrich and were used at a concentration of 1/1000 to achieve these immunohistochemical studies. All experiments were carried out sixfold.

[2] = test system: fibroblasts (PHF) co-cultured with human glioma tumor cells (GAMG); experiment: Marker expression (IHC) in PHF co-cultured with GAMG tumor cells; format: cell-based; conditions: co-culture with GAMG; SP 1 μM; 48 h;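 also: percentage of PHF fibroblasts positive for each marker, cultured in fresh plasma from a healthy donor, six replicates, with fibroblasts cultured alone as reference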
Procedure: (§1) All cultures were maintained 48 hours, following which the same cells were included in paraffin blocks for subsequent analysis of the expression of different markers by immunohistochemistry (see Example 1). […] All experiments were carried out sixfold. Analyzed markers in fibroblast cells (stromal cells) were: TGF-α, TGF-β1, TGF-β2, TGF-β3, SPARC, MMP-3, MMP-7, MMP-9, MMP-11, MMP-13 and MMP-14.

[3] = test system: fibroblasts (PHF) co-cultured with tumor cells of human gastric adenocarcinoma (23132/87); experiment: Marker expression (IHC) in PHF co-cultured with 23132/87 tumor cells; format: cell-based; conditions: co-culture with 23132/87; SP 1 μM; 48 h;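 also: cultures grown in fresh plasma from a healthy human donor, values give the percentage of PHF fibroblasts positive for the marker, each experiment run in six replicates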
Procedure: (§2) All cultures were maintained 48 hours, following which the same cells were included in paraffin blocks for subsequent analysis of the expression of different markers by immunohistochemistry (see Example 1). The primary antibodies used to perform immunohistochemical assays and their concentration are detailed in Example 2. All experiments were carried out sixfold. Analyzed markers in fibroblast cells (stromal cells) were: TGF-α, TGF-β1, TGF-β2, TGF-β3, SPARC, MMP-3, MMP-7, MMP-9, MMP-11, MMP-13 and MMP-14.

[4] = test system: fibroblasts (PHF) co-cultured with tumor cells in human prostate carcinoma (22Rv1); experiment: Marker expression (IHC) in PHF co-cultured with 22Rv1 tumor cells; format: cell-based; conditions: co-culture with 22Rv1; SP 1 μM; 48 h;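 also: cultures grown on fresh plasma from a healthy donor, each experiment run sixfold, values give the percentage of fibroblasts positive for the given marker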
Procedure: as §1

polymorphonuclear cells = experiment: Marker expression (immunohistochemistry) in polymorphonuclear blood cells with SP alone or with NK1 antagonists; format: cell-based, human; conditions: SP 1 μM; 48 h
Source text: Briefly, heparinized blood from healthy donors was centrifuged so as to separate the various components thereof. Red blood cells remained at the bottom of the tube. Above them was a small white layer composed of the white blood cells and above, on top of the tube, the blood plasma. The layer of white cells was distributed in a culture plate of 24 wells by adding in each the same concentration of blood plasma from the same donor, supplemented with 1% antibiotic-antimycotic (Invitrogen). In each well, approximately 1000 cells (PHF) skin from the dermis were further added, obtained as previously described in Example 2. […] After 48 hours of incubation, cells were collected and embedded in paraffin for expression analysis by immunohistochemical techniques (as described in Example 1).
The expression of TGF molecular markers (anti-TGF 2, SAB4502956) and NF-kB (anti-NF-kB, SAB4501992) using specific antibodies against them were analyzed. All antibodies used were rabbit polyclonal antibodies obtained from Sigma Aldrich and were used at a concentration of 1/1000. All experiments were carried out sixfold.

[5] = test system: co-cultures of tumor cells-endothelial cells (C-12210); experiment: Inhibition/survival in co-cultures of primary human tumor cells and endothelial cells; format: cell-based; conditions: survival in reference to control, SP 1 μM
Procedure: To check that the interaction of primary tumor cells extracted directly from human with human vascular endothelial cells, promotes the survival of both cell types, co-cultures were performed microvascular endothelial cells from juvenile foreskins (PromoCell GmbH, Sickingenstraβe 63/65, D-69126 Heidelberg, Germany; reference C-12210) with tumor cells obtained directly from primary human tumors.
A total of 6 wells containing tumor cells were used as control for survival. Another 6 wells containing tumor cells were cultured with addition of endothelial cells.
Subsequently, cells were embedded in paraffin for analysis by immunohistochemistry. In order to identify the different cell types and quantity of them [They were labelled with primary antibodies specific for human endothelial cells (anti-CD31), carcinoma cells (Anti-Cytokeratins Spread Spectrum), glioma (Anti-glial fibrillary acidic protein), fibrosarcoma and malignant fibrous histiocytoma (Anti-Smooth Muscle Actin), Ewing sarcoma (Anti-CD99), Melanoma (Anti-HMB45), leukemias and lymphomas (Anti-Common Antigen Leucitario) and myeloma (anti CD 138). All antibodies are distributed by Dako and were used at the same concentration which is supplied (supplied pre-diluted—“ready to use”).

[6] = test system: fibroblasts (PHF) cells co-cultured with human T lymphoma tumor (DERL-7); experiment: Marker expression (IHC) in PHF co-cultured with DERL-7 tumor cells; format: cell-based; conditions: PHF co-cultured with DERL-7 + SP
Procedure: as §2

[7] = Primary tumor cells (colon carcinoma) co-cultured + fibroblast + SP (1 μM)
[8] = co-culture with cells isolated from glioma, SP 1 μM
[9] = co-culture with cells isolated from lung cancer, SP 1 μM
[10] = co-culture with cells isolated from multiple myeloma, SP 1 μM
[11] = co-culture with cells isolated from pancreatic carcinoma, SP 1 μM
[12] = Carcinoma of lung, (Small cell carcinoma in Table 36)
[13] = Carcinoma of lung, Non Small Cell Carcinoma in Table 36
[14] = Carcinoma of thyroid, (Follicular Carcinoma in Table 36)
[15] = Carcinoma of thyroid, (Papillary Carcinoma in Table 36)

CSCC[C@H](NC(=O)[C@H](CC(C)C)NC(=O)CNC(=O)[C@H](Cc1ccccc1)NC(=O)[C@H](Cc1ccccc1)NC(=O)[C@H](CCC(N)=O)NC(=O)[C@H](CCC(N)=O)NC(=O)[C@@H]1CCCN1C(=O)[C@H](CCCCN)NC(=O)[C@@H]1CCCN1C(=O)[C@@H](N)CCCNC(=N)N)C(N)=O [SP]
Percentage of fibroblast cells which expressed MMP-3 [1, 7]: 47.4 ± 2.4%
Percentage of fibroblast cells which expressed MMP-7 [1, 7]: 55.1 ± 3.6%
Percentage of fibroblast cells which expressed MMP-9 [1, 7]: 54.7 ± 4.5%
Percentage of fibroblast cells which expressed MMP-11 [1, 7]: 28.4 ± 4.4%
Percentage of fibroblast cells which expressed MMP-13 [1, 7]: 43.4 ± 4.6%
Percentage of fibroblast cells which expressed MMP-14 [1, 7]: 48.6 ± 5.6%
Percentage of fibroblast cells which expressed SPARC [1, 7]: 47 ± 2.7%
Percentage of fibroblast cells which expressed TGFα [1, 7]: 45.5 ± 4.2%
Percentage of fibroblast cells which expressed TGFβ1 [1, 7]: 35.3 ± 2.3%
Percentage of fibroblast cells which expressed TGFβ2 [1, 7]: 44.5 ± 3.6%
Percentage of fibroblast cells which expressed TGFβ3 [1, 7]: 45 ± 3.9%
Percentage of fibroblast cells which expressed MMP-3 [1, 8]: 48.4 ± 5.1%
Percentage of fibroblast cells which expressed MMP-7 [1, 8]: 59.4 ± 5.7%
Percentage of fibroblast cells which expressed MMP-9 [1, 8]: 55.5 ± 4.5%
Percentage of fibroblast cells which expressed MMP-11 [1, 8]: 28.9 ± 4.7%
Percentage of fibroblast cells which expressed MMP-13 [1, 8]: 48.0 ± 5.6%
Percentage of fibroblast cells which expressed MMP-14 [1, 8]: 46.3 ± 3.6%
Percentage of fibroblast cells which expressed SPARC [1, 8]: 56.2 ± 4.2%
Percentage of fibroblast cells which expressed TGFα [1, 8]: 38.4 ± 2.3%
Percentage of fibroblast cells which expressed TGFβ1 [1, 8]: 35.4 ± 2.6%
Percentage of fibroblast cells which expressed TGFβ2 [1, 8]: 42.4 ± 4.2%
Percentage of fibroblast cells which expressed TGFβ3 [1, 8]: 52.1 ± 3.7%
Percentage of fibroblast cells which expressed MMP-3 [1, 9]: 51.5 ± 5.8%
Percentage of fibroblast cells which expressed MMP-7 [1, 9]: 54.4 ± 6.3%
Percentage of fibroblast cells which expressed MMP-9 [1, 9]: 56.5 ± 4.6%
Percentage of fibroblast cells which expressed MMP-11 [1, 9]: 38.6 ± 3.4%
Percentage of fibroblast cells which expressed MMP-13 [1, 9]: 46.3 ± 3.4%
Percentage of fibroblast cells which expressed MMP-14 [1, 9]: 47.6 ± 5.6%
Percentage of fibroblast cells which expressed SPARC [1, 9]: 47.3 ± 4.2%
Percentage of fibroblast cells which expressed TGFα [1, 9]: 37.5 ± 2.3%
Percentage of fibroblast cells which expressed TGFβ1 [1, 9]: 37.3 ± 3.3%
Percentage of fibroblast cells which expressed TGFβ2 [1, 9]: 52.3 ± 2.8%
Percentage of fibroblast cells which expressed TGFβ3 [1, 9]: 46.1 ± 4.3%
Percentage of fibroblast cells which expressed MMP-3 [1, 10]: 46.6 ± 5.7%
Percentage of fibroblast cells which expressed MMP-7 [1, 10]: 57.6 ± 4.1%
Percentage of fibroblast cells which expressed MMP-9 [1, 10]: 57.3 ± 4.5%
Percentage of fibroblast cells which expressed MMP-11 [1, 10]: 29.4 ± 3.1%
Percentage of fibroblast cells which expressed MMP-13 [1, 10]: 47.5 ± 4.3%
Percentage of fibroblast cells which expressed MMP-14 [1, 10]: 47.2 ± 3.4%
Percentage of fibroblast cells which expressed SPARC [1, 10]: 46.3 ± 3.2%
Percentage of fibroblast cells which expressed TGFα [1, 10]: 49.3 ± 3.3%
Percentage of fibroblast cells which expressed TGFβ1 [1, 10]: 45.6 ± 4.2%
Percentage of fibroblast cells which expressed TGFβ2 [1, 10]: 52.3 ± 3.2%
Percentage of fibroblast cells which expressed TGFβ3 [1, 10]: 47.4 ± 3.5%
Percentage of fibroblast cells which expressed MMP-3 [1, 11]: 47.5 ± 6.1%
Percentage of fibroblast cells which expressed MMP-7 [1, 11]: 56.6 ± 5.1%
Percentage of fibroblast cells which expressed MMP-9 [1, 11]: 54.1 ± 5.2%
Percentage of fibroblast cells which expressed MMP-11 [1, 11]: 27.1 ± 6.2%
Percentage of fibroblast cells which expressed MMP-13 [1, 11]: 57.2 ± 4.7%
Percentage of fibroblast cells which expressed MMP-14 [1, 11]: 46.2 ± 5.1%
Percentage of fibroblast cells which expressed SPARC [1, 11]: 43.7 ± 4.5%
Percentage of fibroblast cells which expressed TGFα [1, 11]: 44.2 ± 4.5%
Percentage of fibroblast cells which expressed TGFβ2 [1, 11]: 43.6 ± 7.4%
Percentage of fibroblast cells which expressed TGFβ3 [1, 11]: 45.4 ± 5.6%
PHF cells expressing MMP-3 [2]: 43.4 ± 2.8%
PHF cells expressing MMP-7 [2]: 57.1 ± 3.8%
PHF cells expressing MMP-9 [2]: 52.3 ± 2.4%
PHF cells expressing MMP-11 [2]: 27.5 ± 3.8%
PHF cells expressing MMP-13 [2]: 45.4 ± 3.6%
PHF cells expressing MMP-14 [2]: 49.3 ± 3.5%
PHF cells expressing SPARC [2]: 51.2 ± 3.3%
PHF cells expressing TGF-α [2]: 42.5 ± 3.1%
PHF cells expressing TGF-β1 [2]: 33.6 ± 3.1%
PHF cells expressing TGF-β2 [2]: 40.7 ± 2.1%
PHF cells expressing TGF-β3 [2]: 51 ± 1.6%
PHF cells expressing MMP-3 [3]: 43.4 ± 1.7%
PHF cells expressing MMP-7 [3]: 56.1 ± 2.8%
PHF cells expressing MMP-9 [3]: 52.3 ± 1.4%
PHF cells expressing MMP-11 [3]: 27.4 ± 2.8%
PHF cells expressing MMP-13 [3]: 45 ± 3.5%
PHF cells expressing MMP-14 [3]: 49.2 ± 4.5%
PHF cells expressing SPARC [3]: 47 ± 1.2%
PHF cells expressing TGF-α [3]: 32.4 ± 1.1%
PHF cells expressing TGF-β1 [3]: 33.5 ± 1.1%
PHF cells expressing TGF-β2 [3]: 40.5 ± 1.1%
PHF cells expressing TGF-β3 [3]: 41 ± 1.56%
PHF cells expressing MMP-3 [4]: 43.3 ± 2.7%
PHF cells expressing MMP-7 [4]: 54.3 ± 4.8%
PHF cells expressing MMP-9 [4]: 51.4 ± 2.4%
PHF cells expressing MMP-11 [4]: 28.5 ± 3.8%
PHF cells expressing MMP-13 [4]: 46 ± 2.5%
PHF cells expressing MMP-14 [4]: 49 ± 3.5%
PHF cells expressing SPARC [4]: 48.1 ± 3.2%
PHF cells expressing TGF-α [4]: 41.4 ± 2.1%
PHF cells expressing TGF-β1 [4]: 34.5 ± 3.1%
PHF cells expressing TGF-β2 [4]: 42.5 ± 2.1%
PHF cells expressing TGF-β3 [4]: 4.11 ± 3.6%
polymorphonuclear cells expressing NF-kB (polymorphonuclear cells): 17.5 ± 1.6%
polymorphonuclear cells expressing TGF-β (polymorphonuclear cells): 36.8 ± 2.1%
Endothelial cells co-cultured with tumor cells + SP ([5]; Carcinoma of Colon): 243 ± 4%
Tumor cells co-cultured with endothelial cells + SP ([5]; Carcinoma of Colon): 253 ± 4%
Endothelial cells co-cultured with tumor cells + SP ([5]; Carcinoma of Pancreas): 287 ± 3%
Tumor cells co-cultured with endothelial cells + SP ([5]; Carcinoma of Pancreas): 252 ± 4%
Endothelial cells co-cultured with tumor cells + SP ([5]; Carcinoma of breast): 281 ± 4%
Tumor cells co-cultured with endothelial cells + SP ([5]; Carcinoma of breast): 253 ± 5%
Endothelial cells co-cultured with tumor cells + SP ([5]; Carcinoma of cervix): 292 ± 4%
Tumor cells co-cultured with endothelial cells + SP ([5]; Carcinoma of cervix): 260 ± 4%
Endothelial cells co-cultured with tumor cells + SP ([5]; Carcinoma of endometrial): 283 ± 5%
Tumor cells co-cultured with endothelial cells + SP ([5]; Carcinoma of endometrial): 252 ± 3%
Endothelial cells co-cultured with tumor cells + SP [5, 12]: 294 ± 2%
Tumor cells co-cultured with endothelial cells + SP [5, 12]: 264 ± 3%
Endothelial cells co-cultured with tumor cells + SP [5, 13]: 274 ± 5%
Tumor cells co-cultured with endothelial cells + SP [5, 13]: 245 ± 6%
Endothelial cells co-cultured with tumor cells + SP ([5]; Carcinoma of ovarian): 282 ± 4%
Tumor cells co-cultured with endothelial cells + SP ([5]; Carcinoma of ovarian): 254 ± 4%
Endothelial cells co-cultured with tumor cells + SP ([5]; Carcinoma of prostate): 270 ± 4%
Tumor cells co-cultured with endothelial cells + SP ([5]; Carcinoma of prostate): 269 ± 1%
Endothelial cells co-cultured with tumor cells + SP ([5]; Carcinoma of stomach): 251 ± 3%
Tumor cells co-cultured with endothelial cells + SP ([5]; Carcinoma of stomach): 260 ± 4%
Endothelial cells co-cultured with tumor cells + SP [5, 14]: 260 ± 5%
Tumor cells co-cultured with endothelial cells + SP [5, 14]: 240 ± 6%
Endothelial cells co-cultured with tumor cells + SP [5, 15]: 265 ± 2%
Tumor cells co-cultured with endothelial cells + SP [5, 15]: 230 ± 4%
Endothelial cells co-cultured with tumor cells + SP ([5]; Fibrosarcoma): 249 ± 5%
Tumor cells co-cultured with endothelial cells + SP ([5]; Fibrosarcoma): 257 ± 3%
Endothelial cells co-cultured with tumor cells + SP ([5]; Glioma): 238 ± 6%
Tumor cells co-cultured with endothelial cells + SP ([5]; Glioma): 247 ± 5%
Endothelial cells co-cultured with tumor cells + SP ([5]; Hodgkin's Lymphoma): 248 ± 5%
Tumor cells co-cultured with endothelial cells + SP ([5]; Hodgkin's Lymphoma): 265 ± 4%
Endothelial cells co-cultured with tumor cells + SP ([5]; Leukemia B): 278 ± 4%
Tumor cells co-cultured with endothelial cells + SP ([5]; Leukemia B): 265 ± 6%
Endothelial cells co-cultured with tumor cells + SP ([5]; Leukemia T): 276 ± 4%
Tumor cells co-cultured with endothelial cells + SP ([5]; Leukemia T): 256 ± 6%
Endothelial cells co-cultured with tumor cells + SP ([5]; Malignant fibrous histiocytoma): 246 ± 4%
Tumor cells co-cultured with endothelial cells + SP ([5]; Malignant fibrous histiocytoma): 245 ± 3%
Endothelial cells co-cultured with tumor cells + SP ([5]; Melanoma): 267 ± 4%
Tumor cells co-cultured with endothelial cells + SP ([5]; Melanoma): 245 ± 2%
Endothelial cells co-cultured with tumor cells + SP ([5]; Myeloma): 267 ± 2%
Tumor cells co-cultured with endothelial cells + SP ([5]; Myeloma): 232 ± 3%
Endothelial cells co-cultured with tumor cells + SP ([5]; Neuroblastoma): 258 ± 3%
Tumor cells co-cultured with endothelial cells + SP ([5]; Neuroblastoma): 256 ± 5%
Endothelial cells co-cultured with tumor cells + SP ([5]; Non-Hodgkin's Lymphoma B): 254 ± 7%
Tumor cells co-cultured with endothelial cells + SP ([5]; Non-Hodgkin's Lymphoma B): 267 ± 5%
Endothelial cells co-cultured with tumor cells + SP ([5]; Non-Hodgkin's Lymphoma T): 256 ± 4%
Tumor cells co-cultured with endothelial cells + SP ([5]; Non-Hodgkin's Lymphoma T): 276 ± 4%
Endothelial cells co-cultured with tumor cells + SP ([5]; Renal carcinoma): 282 ± 4%
Tumor cells co-cultured with endothelial cells + SP ([5]; Renal carcinoma): 260 ± 4%
Endothelial cells co-cultured with tumor cells + SP ([5]; Sarcoma of Ewing): 234 ± 5%
Tumor cells co-cultured with endothelial cells + SP ([5]; Sarcoma of Ewing): 236 ± 4%
cells expressing MMP-3 [6]: 63.4 ± 3.7%
cells expressing MMP-7 [6]: 66.1 ± 4.8%
cells expressing MMP-9 [6]: 62.3 ± 3.4%
cells expressing MMP-11 [6]: 67.8 ± 4.8%
cells expressing MMP-13 [6]: 61 ± 5.3%
cells expressing MMP-14 [6]: 58.4 ± 3.5%
cells expressing SPARC [6]: 67 ± 4.2%
cells expressing TGF-α [6]: 62.5 ± 3.1%
cells expressing TGF-β1 [6]: 64.5 ± 4.3%
cells expressing TGF-β2 [6]: 70.6 ± 4.1%
cells expressing TGF-β3 [6]: 61 ± 5.6%
